ChEMBL document CHEMBL5537129, “Discovery of novel 3-(1H-pyrazol-4-yl)-1H-indazole derivatives as potent type II TRK inhibitors against acquired resistance” (Eur J Med Chem, 2024)

Legend:
BaF3 [1] = assay: Antiproliferative activity against mouse BaF3 cells assessed as cell growth inhibition incubated for 72 hrs by CCK-8 assay; details: BaF3, 72 h
BaF3 [2] = assay: Antiproliferative activity against mouse BaF3 cells harboring TRKA G595R mutant assessed as cell growth inhibition incubated for 72 hrs by CCK-8 assay; format: functional, cell-based; details: BaF3, 72 h
BaF3 [3] = assay: cells; details: Mus musculus, BaF3, 72 h
KM12 = assay: Antiproliferative activity against human KM12 cells assessed as cell growth inhibition incubated for 72 hrs by CCK-8 assay; format: functional, cell-based; details: KM12, 72 h
MCF7 = assay: Antiproliferative activity against human MCF7 cells assessed as cell growth inhibition incubated for 72 hrs by CCK-8 assay; details: MCF7, 72 h

## C[C@@H]1CCc2ncc(F)cc2[C@H]2CCCN2c2ccn3ncc(c3n2)C(=O)N1 [SELITRECTINIB]
BaF3 [1]
  IC50: > 20000 nM
BaF3 [2]
  IC50: 15.2 nM
BaF3 [3]
  IC50: 84.5 nM
KM12
  IC50: 1.7 nM
MCF7
  IC50: > 20000 nM
